Laboratory results reported in patent US7332482B2, “Method for treating benign prostatic hyperplasia” (BioXell S.p.A., priority 2003, dated 2008).
Entries after “also recorded” stand apart in the source; their conditions may differ.

Legend:
[1] = tested on: bladder strips; assay: In vitro contractility of bladder strips from BOO rats; parameters: species or system rat; settings: strips from treated rats
Protocol: After completion of the cystometries, the rats were sacrificed by carbon monoxide asphyxiation followed by exsanguination. The abdomen was accessed through a lower midline incision whereafter the symphysis was opened. The bladder was carefully dissected free, and immediately placed in chilled Krebs solution, and strip preparations were dissected.
The bladder and urethra were separated at the level of the bladder neck, and semicircular strips were prepared from the middle third of the detrusor (1×2×5 mm). All preparations were used immediately after removal.
The strips were transferred to 5 ml tissue baths containing Krebs solution. The Krebs solution was maintained at 37° C. and bubbled continuously with a mixture of 95% O2 and 5% CO2, resulting in a pH of 7.4. The strips were suspended between two L-shaped hooks by means of silk ligatures. One hook was connected to a movable unit allowing adjustment of passive tension, and the other to a Grass FT03C (Grass Instruments Co, MA, USA) force transducer. Isometric tension was recorded using a Grass polygraph (7D). After mounting, the strips were stretched to a passive tension of 4 mN (the same tension for all preparations) and allowed to equilibrate for 45-60 min before further experiments were performed.
Electrical field stimulation (EFS) was accomplished by means of two platinum electrodes placed on either side of the preparations, and was performed using a Grass S48 or S88 stimulator, delivering single square wave pulses at selected frequencies. The train duration was 5 s, the pulse duration 0.8 ms, and the stimulation interval 2 min. The polarity of the electrodes was shifted after each pulse by means of a polarity changing unit.
Each experiment was started by exposing the preparations to a high K^+ (124 mM) Krebs solution until two reproducible contractions are obtained. […]

[2] = target: T1, 5α reductase type 2 (Homo sapiens, UniProt P31213); assay: 5α reductase inhibition test in CHO 1829 cells; format: cell-based; settings: 10^−9 to 10^−5 M
T1 construct: host or cells: CHO 1829
T1 sequence (P31213 1-254): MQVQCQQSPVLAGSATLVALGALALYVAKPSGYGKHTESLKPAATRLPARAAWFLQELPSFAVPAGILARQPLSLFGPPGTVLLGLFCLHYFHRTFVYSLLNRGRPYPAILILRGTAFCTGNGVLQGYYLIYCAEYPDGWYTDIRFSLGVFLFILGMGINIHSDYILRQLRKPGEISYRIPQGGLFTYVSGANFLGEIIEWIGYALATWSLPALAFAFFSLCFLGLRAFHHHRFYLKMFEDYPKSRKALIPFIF
Protocol: (§1) CHO-1827 and CHO-1829 cells, transfected with 5α reductase type 1 (5αR-1) or type 2 (5αR-2), respectively (see Steers W. Urology (2001) 58 p 17-24), were maintained in Ham's F12 medium supplemented with 5% FCS.
(§2) 5α reductase inhibition assay was performed using CHO 1827 cells, transfected with 5αR-1, or CHO 1829 cells, transfected with 5αR-2, as described (see Guarna A, et al. Journal of Medicinal Chemistry (2000) 43 3718-3735.). Compound A was added in a concentration range from 10^−9 to 10^−5 M, using finasteride as a control inhibitor in each experiment.

[3] = tested on: rat ventral prostate; assay: Ventral prostate growth in intact adult rats
Description: Rat ventral prostate glands were rapidly excised out, weighed and quickly frozen in dry ice.

[4] = target: T2, 5α reductase type 1 (Homo sapiens, UniProt P18405); assay: 5α reductase inhibition test in CHO 1827 cells; format: cell-based; settings: 10^−9 to 10^−5 M
T2 construct: host or cells: CHO 1827
T2 sequence (P18405 1-259): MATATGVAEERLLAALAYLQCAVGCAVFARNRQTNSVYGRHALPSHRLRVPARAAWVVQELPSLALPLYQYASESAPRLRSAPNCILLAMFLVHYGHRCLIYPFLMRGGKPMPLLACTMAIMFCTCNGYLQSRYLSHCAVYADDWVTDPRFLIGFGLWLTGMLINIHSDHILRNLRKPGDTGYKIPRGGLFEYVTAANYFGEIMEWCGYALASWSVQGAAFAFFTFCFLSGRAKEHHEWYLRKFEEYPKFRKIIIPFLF
Protocol: as §1, §2

[5] = tested on: rat ventral prostate; assay: Clusterin expression (Northern, immunohistochemistry) and TUNEL in rat ventral prostate; format: in vivo
Protocol: Total RNA was extracted using RNAFast from Molecular System (San Diego, Calif.). Blotting, labelling, hybridization conditions and probes (rat clusterin 1.5 Kb full-length cDNA and GAPDH 1.2 Kb full-length cDNA) were performed according to the reported procedures (Bettuzzi et al, Biochemical Journal, (1989), 257, p 293-296 and Marinelli et al, Biochemistry and Cell Biology, (1994), 72, p 515-521). Quantitation of the autoradiograms was obtained by densitometric scanning using an LKB Ultrascan XL densitometer.
All the cryostatic sections obtained from controls and treated rats were processed in parallel as previously described (Astancolle et al, Journal of Endocrinology, (2000), 167, p 197-204). For every experimental condition, 3 alternate sections from 3 different rat prostates were examined. […] Counterstaining was performed with haematoxylin, and cover slips were mounted with Eukitt (O. Kindler GmbH & Co, Germany). Digital high-magnification colour images were acquired by a CCD camera through the microscope.
DNA fragmentation in prostate cryostatic sections, assessed by terminal deoxynucleotidyl transferase (TdT)-mediated dUTP nick end-labelling (TUNEL), was performed using the In Situ Cell Death Detection Kit (POD, Roche) as recommended by the manufacturer. TUNEL positive apoptotic nuclei were documented by digital high-magnification colour images acquired by a CCD camera through the microscope. Counterstaining was performed with eosin, and cover slips were mounted with Eukitt (O Kindler GmbH & Co, Germany).

C=C1/C(=C\C=C2/CCC[C@]3(C)C([C@@H](C)C/C=C/C(O)(CC)CC)=CC[C@@H]23)C[C@@H](O)C[C@@H]1F [Compound A, 1-alpha-fluoro-25-hydroxy-16,23E-diene-26,27-bishomo-20-epi-cholecalciferol]
response of bladder strips to EFS [1]: beneficial effect | response of bladder strips to carbachol [1]: beneficial effect | K response of bladder strips ([1]; high K+ 124 mM): beneficial effect | interference with 5α reductase type 2 [2]: did not interfere with either isoenzyme up to the micromolar range | maximal reduction of ventral prostate weight ([3]; one month oral, 300 μg/Kg): 30% | effect on ventral prostate weight ([3]; one-month oral treatment, 10-300 μg/Kg): significantly decreased | interference with 5α reductase type 1 [4]: did not interfere with either isoenzyme up to the micromolar range | DNA fragmentation / apoptosis in ventral prostate (TUNEL) ([5]; castrated T-supplemented rats, 100 and 300 μg/Kg, 9 administrations): induced an evident nuclear fragmentation in epithelial and stromal cells; also recorded: induced massive apoptosis in the majority of epithelial and stromal cells | clusterin staining and apoptosis in prostate (immunohistochemistry, TUNEL) ([5]; intact adult rats, Compound A 10, 30, 100 μg/Kg, finasteride 40 mg/Kg): induced clusterin expression; also recorded: dose-dependently stained for clusterin | clusterin mRNA expression in ventral prostate (Northern) ([5]; intact rats, one month, 30 and 100 μg/Kg): induced a sustained increase | clusterin mRNA expression in ventral prostate (Northern) ([5]; orchidectomized T-supplemented rats, Compound A 300 and 100 μg/Kg, F 40 mg/Kg): partially blunted the T-induced down-regulation of clusterin gene expression
